Test results as given in patent publication US5382670A, “Platelet activating factor antagonists” (priority 1993, dated 1995).
Where a name gives a salt, the structure may show the parent alone.

What follows are molecules tested against PAF receptor (Oryctolagus cuniculus, UniProt G1TEI7) (assay: PAF receptor binding assay: inhibition of specific [3H]C18-PAF binding to rabbit platelet membranes). Settings: 0.6 nM [3H]C18-PAF, 60 min, 22-23 °C, Ki from IC50 (Cheng and Prusoff), read-out: Ki (PAF Receptor Binding Activity).
Procedure: The ability of representative compounds of the present invention to inhibit PAF activity was determined in an in vitro test using the following method.
Citrated whole rabbit blood was obtained from Pel-Freez (Rogers, AR). Rabbit platelets were prepared by centrifugation and washing. The platelets were lysed by freeze-thawing and sonication; platelet membranes were prepared by centrifugation and washing. Final membrane preparations were stored frozen in 10 mM Tris/5 mM MgCl2 /2 mM EDTA (TME buffer, pH 7.0) with 0.25M sucrose added for membrane stabilization.
The standard PAF receptor binding assay contained 10 μg platelet membrane protein, 0.6 nM [^3 H]C18 -PAF (from Amersham or New England Nuclear; specific activity 120-180 Ci/mmol), with and without test compound, in "binding buffer" consisting of TME with 0.25% bovine serum albumin added (Sigma, RIA grade). The final volume of the assay was 100 μl. The assay was conducted in Millititre-GV™ (Millipore Corp.) filtration plates; incubation time was for 60 minutes at room temperature (22°-23° C.). "Specific binding" was operationally defined as the arithmetic difference between "total binding" of 0.6 nM [^3 H]C18 -PAF (in the abasence of added PAF) and "nonspecific binding" (in the presence of 1 μM PAF). After the prescribed incubation, platelet membranes were filtered under vacuum, and washed with 1 milliliter of "binding buffer". The filters were dried and removed. The bound radioactivity was quantitated with a Berthold TLC-Linear Analyzer model LB2842.
Dose-response curves of inhibition of specific [^3 H]C18 -PAF binding by test compounds were conducted in triplicate, with at least four doses covering the active range. Experiments were repeated at least once. IC50 values (concentration producing 50% inhibition) were determined by point-to-point evaluation. Ki values of inhibitory binding constants were calculated according to the method of Cheng and Prusoff [Biochem. Pharmacol. 22 (1973) 3099-3108] whereby [formula]
The values of Ki for representative compounds of the present invention appear in Table 1.

Chain of PAF receptor (G1TEI7 1-342): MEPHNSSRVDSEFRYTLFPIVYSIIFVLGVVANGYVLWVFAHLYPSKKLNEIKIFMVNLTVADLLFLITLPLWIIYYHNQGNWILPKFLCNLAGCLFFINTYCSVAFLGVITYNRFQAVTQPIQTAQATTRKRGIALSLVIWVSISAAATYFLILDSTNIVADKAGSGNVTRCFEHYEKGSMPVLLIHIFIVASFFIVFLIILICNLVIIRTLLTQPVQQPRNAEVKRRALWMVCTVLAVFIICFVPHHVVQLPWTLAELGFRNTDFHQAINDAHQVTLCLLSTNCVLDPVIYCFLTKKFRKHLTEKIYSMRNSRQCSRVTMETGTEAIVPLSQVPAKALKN

Row | Ki [nM] | SMILES
1 | 2 | CN(C)C(=O)n1cc(C(=O)C2CSC(c3cccnc3)N2)c2ccc(C#Cc3ccccc3)cc21 (stereo not shown) [Example 78]
2 | 16 | Cc1[nH]c2cc(OCc3ccccc3)ccc2c1C(=O)C1CSC(c2cccnc2)N1 (stereo not shown) [Example 79, 2-methyl-3-[2-(3-pyridinyl)thiazolid-4-oyl]-6-phenylmethoxyindole]
3 | 4 | COc1ccc2c(C(=O)C3CSC(c4cccnc4)N3)cn(C(=O)N(C)C)c2c1 (stereo not shown) [Example 85, 1-dimethylcarbamoyl-3-[2-(3-pyridinyl)thiazolid-4-oyl]-6-methoxyindole]
4 | 15 | O=C(c1c[nH]c2cc(-c3ccccc3)ccc12)C1CSC(c2cccnc2)N1 (stereo not shown) [Example 86, 3-[2-(3-pyridinyl)-thiazolid-4-oyl]-6-phenylindole]
5 | 4 | CN(C)C(=O)n1cc(C(=O)C2CSC(c3cccnc3)N2)c2ccc(-c3ccccc3)cc21 (stereo not shown) [Example 87, 1-dimethylcarbamoyl-3-[2-(3-pyridinyl)thiazolid-4-oyl]-6-phenylindole]
6 | 1 | CN(C)C(=O)n1cc(C(=O)C2CSC(c3cccnc3)N2)c2ccc(Cl)cc21 (stereo not shown) [Example 89, 1-dimethylcarbamoyl-3-[2-(3-pyridinyl)thiazolid-4-oyl]-6-chloroindole]
7 | 270 | O=CN1C(C(=O)c2c[nH]c3ccccc23)CSC1c1cccnc1 (stereo not shown) [Example 90, 3-[2-(3-pyridinyl)-3-formylthiazolid-4-oyl]indole]
8 | 37 | CN(C)C(=O)n1cc(C(=O)C2CSC(c3cccnc3)N2C=O)c2ccccc21 (stereo not shown) [Example 91, 1-dimethylcarbamoyl-3-[2-(3-pyridinyl)-3-formylthiazolid-4-oyl]indole]
9 | 150 | O=CN1C(C(=O)c2cn(C(=O)N3CCOCC3)c3ccccc23)CSC1c1cccnc1 (stereo not shown) [Example 92, 1-(4-morpholinocarbonyl)-3-[2-(3-pyridinyl)-3-formylthiazolid-4-oyl]indole]
10 | 35 | CN(C)C(=O)n1cc(C(=O)C2CSC(c3cccnc3)N2C=O)c2ccc(OCc3ccccc3)cc21 (stereo not shown) [Example 93, 1-dimethylcarbamoyl-3-[2-(3-pyridinyl)-3-formylthiazolid-4-oyl]-6-phenylmethoxyindole]
11 | 33 | Cc1ccc2c(C(=O)C3CSC(c4cccnc4)N3C=O)cn(C(=O)N(C)C)c2c1 (stereo not shown) [Example 94, 1-dimethylcarbamoyl-3-[2-(3-pyridinyl)-3-formylthiazolid-4-oyl]-6-methylindole]
12 | 3300 | CN(C)C(=O)n1cc(C(=O)C2C[S+]([O-])C(c3cccnc3)N2C=O)c2ccccc21 (stereo not shown) [Example 95, 1-dimethylcarbamoyl-3-[1-oxide,2-(3,pyridinyl)-3-formylthiazolid-4-oyl]indole]
13 | 150 | CN(C)C(=O)n1cc(C(=O)[C@@H]2CSC(c3cccnc3)N2C=O)c2ccccc21 (stereo partly drawn) [Example 96, trans-1-dimethylcarbamoyl-3-[2-(3-pyridinyl)-3-formylthiazolid-4-oyl]indole]
14 | 18000 | CC(=O)N1C(C(=O)c2c[nH]c3ccccc23)CSC1c1cccnc1 (stereo not shown) [Example 98, 3-[2-(3-pyridinyl)-3-acetylthiazolid-4-oyl]indole]
15 | 5000 | CC(=O)N1C(C(=O)c2cn(C(=O)N(C)C)c3cc(OCc4ccccc4)ccc23)CSC1c1cccnc1 (stereo not shown) [Example 99, 1-dimethylcarbamoyl-3-[2-(3-pyridinyl)-3-acetylthiazolid-4-oyl]-6-phenylmethoxyindole]
16 | 5200 | CC(=O)N1C(C(=O)c2cn(C(=O)N(C)C)c3ccccc23)CSC1c1cccnc1 (stereo not shown) [Example 100, 1-dimethylcarbamoyl-3-[2-(3-pyridinyl)-3-acetylthiazolid-4-oyl]indole]
17 | 2200 | CC(=O)N1C(C(=O)c2cn(C(=O)N(C)C)c3cc(OCc4ccccc4)ccc23)CSC1c1cccnc1 (stereo not shown) [Example 101, oxalate]
18 | 1400 | CN(C)C(=O)n1cc(C(=O)C2CSC(c3cccnc3)N2C(N)=O)c2ccccc21 (stereo not shown) [Example 110, 1-dimethylcarbamoyl-3-[2-(3-pyridinyl)-3-carbamoylthiazolid-4-oyl]indole]
19 | 700 | CN(C)C(=O)n1cc(C(=O)C2CSC(c3cccnc3)N2C(N)=O)c2ccc(OCc3ccccc3)cc21 (stereo not shown) [Example 111, 1-dimethylcarbamoyl-3-[2-(3-pyridinyl)-3-carbamoylthiazolid-4-oyl]-6-phenylmethoxyindole]
20 | 4800 | CN(C)C(=O)n1cc(C(=O)C2CSC(c3cccnc3)N2S(C)(=O)=O)c2ccccc21 (stereo not shown) [Example 112, 1-dimethylcarbamoyl-3-[2-(3-pyridinyl)-3-methylsulfonylthiazolid-4-oyl]indole]
21 | 1300 | CN(C)C(=O)n1cc(C(=O)C2COC(c3cccnc3)N2C=O)c2ccccc21 (stereo not shown) [Example 113, 1-dimethylcarbamoyl-3-[2-(3-pyridinyl)-3,formyloxazolid-4-oyl]indole]
22 | 2 | CN(C)C(=O)n1cc(C(=O)C2CSC(c3cccnc3)N2)c2ccc(OCc3ccccc3)cc21 (stereo not shown) [Example 123, 1-dimethylcarbamoyl-3-[2-(3-pyridinyl)thiazolid-4-oyl]-6-phenylmethoxyindole oxalate]

Row | SMILES | Ki [nM]
23 | Cc1ccc2c(C(=O)C3CSC(c4cccnc4)N3)cn(C(=O)OC(C)(C)C)c2c1 (stereo not shown) [Example 81, 1-tert-butoxycarbonyl-3-[2-(3-pyridinyl)thiazolid-4-oyl]-6-methylindole oxalate] | 2
24 | COc1ccc2c(C(=O)C3CSC(c4cccnc4)N3)cn(C(=O)OC(C)(C)C)c2c1 (stereo not shown) [Example 84, 1-tert-butoxycarbonyl-3-[2-(3-pyridinyl)thiazolid-4-oyl]-6-methoxyindole oxalate] | 9
25 | CC(C)(C)OC(=O)n1cc(C(O)C2CSC(c3cccnc3)N2)c2ccccc21 (stereo not shown) [Example 114, [2-(3-pyridinyl)thiazolid-4-yl](1-tert-butoxycarbonylindol-3-yl)methanol] | 43

Same assay, conditions: Ki (PAF Receptor Binding Activity), 0.6 nM [3H]C18-PAF, 60 min, 22-23 °C, Ki from IC50 (Cheng and Prusoff)

Row | SMILES | Ki [nM]
26 | Cc1ccc2c(C(=O)C3CSC(c4cccnc4)N3)c[nH]c2c1 (stereo not shown) [Example 80, 3-[2-(3-pyridinyl)thiazolid-4-oyl]-6-methylindole] | 3
27 | COc1ccc2c(C(=O)C3CSC(c4cccnc4)N3)c[nH]c2c1 (stereo not shown) [Example 82, 3-[2-(3-pyridinyl)thiazolid-4-oyl]-6-methoxyindole] | 9
28 | COc1ccc2c(C(=O)C3CSC(c4cccnc4)N3)c[nH]c2c1 (stereo not shown) [Example 83, 3-[2-(3-pyridinyl)thiazolid-4-oyl]-6-methoxyindole oxalate] | 16
29 | O=C(c1c[nH]c2cc(O)ccc12)C1CSC(c2cccnc2)N1 (stereo not shown) [Example 88, 3-[2-(3-pyridinyl)thiazolid-4-oyl]-6-hydroxyindole] | 150
30 | O=C(c1cc2ccccc2[nH]1)C1CSC(c2cccnc2)N1 (stereo not shown) [Example 115, 2-[2-(3-pyridinyl)thiazolid-4-oyl]indole] | 155
31 | CN(C)C(=O)Cn1cc(C(=O)C2CSC(c3cccnc3)N2)c2ccccc21 (stereo not shown) [Example 116, 1-(N,N-dimethylcarbamoylmethyl)-3-[2-(3-pyridinyl)thiazolid-4-oyl]indole] | 7
32 | CNC(=O)Cn1cc(C(=O)C2CSC(c3cccnc3)N2)c2ccccc21 (stereo not shown) [Example 117, 1-(N-methylcarbamoylmethyl)-3-[2-(3-pyridinyl)thiazolid-4-oyl]indole] | 3
33 | COC(=O)CCn1cc(C(=O)C2CSC(c3cccnc3)N2)c2ccccc21 (stereo not shown) [Example 118, 1-carbomethoxyethyl-3-[2-(3-pyridinyl)thiazolid-4-oyl]indole] | 5
34 | O=C(O)CCn1cc(C(=O)C2CSC(c3cccnc3)N2)c2ccccc21 (stereo not shown) [Example 119, 1-carboxyethyl-3-[2-(3-pyridinyl)thiazolid-4-oyl]indole] | 20
35 | O=C(O)Cn1cc(C(=O)C2CSC(c3cccnc3)N2)c2ccccc21 (stereo not shown) [Example 120, 1-carboxymethyl-3-[2-(3-pyridinyl)thiazolid-4-oyl]indole] | 19
36 | COC(=O)c1ccc2c(C(=O)C3CSC(c4cccnc4)N3)c[nH]c2c1 (stereo not shown) [Example 122, 3-[2-(3-pyridinyl)thiazolid-4-oyl]-6-carbomethoxyindole] | 400

Same assay, conditions: read-out: Ki (PAF Receptor Binding Activity), 0.6 nM [3H]C18-PAF, 60 min, 22-23 °C, Ki from IC50 (Cheng and Prusoff)

Row | SMILES | Ki [nM]
37 | NC(=O)CCn1cc(C(=O)C2CSC(c3cccnc3)N2)c2ccccc21 (stereo not shown) [Example 121] | 6
